We go through 15 compounds from patent US6608086B2, “Dihydropyridines and new uses thereof” (Synaptic Pharmaceutical Corporation, priority 1993, dated 2003).

By pA2 is commonly meant a measure of antagonist potency on a negative log scale. Read a high pA2 as higher antagonist potency. As usually defined, the pKi is −log10 of the Ki, conventionally taken in molar units. The low end stands for a large Ki, the high end for a small Ki. One may read the melting point as the temperature of the solid-liquid transition.

In series [1] the target is T1, α2C receptor (Homo sapiens, UniProt P18825).
T1 construct: host or cells: LM(tk-) cells, line L-α2C
T1 sequence (P18825 1-462): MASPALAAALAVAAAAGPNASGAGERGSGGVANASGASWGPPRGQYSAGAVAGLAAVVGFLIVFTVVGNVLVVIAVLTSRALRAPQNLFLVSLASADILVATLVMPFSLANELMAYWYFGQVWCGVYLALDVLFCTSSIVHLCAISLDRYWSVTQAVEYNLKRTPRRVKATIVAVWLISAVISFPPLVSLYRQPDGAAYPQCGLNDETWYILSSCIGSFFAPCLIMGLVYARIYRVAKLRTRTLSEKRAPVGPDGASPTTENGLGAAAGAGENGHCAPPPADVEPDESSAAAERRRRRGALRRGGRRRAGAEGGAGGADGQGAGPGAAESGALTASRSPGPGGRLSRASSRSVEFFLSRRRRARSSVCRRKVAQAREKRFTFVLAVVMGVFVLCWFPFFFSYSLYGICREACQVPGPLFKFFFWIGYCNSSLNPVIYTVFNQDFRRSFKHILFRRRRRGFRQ
Briefly: Competition binding, [3H]rauwolscine, human α2C receptor. The procedure, abridged:
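Using 25 mM glycylglycine buffer at pH 7.6 (room temperature), membranes from LM(tk−) cells carrying α2A, α2B or α2C were competed against 0.5 nM [3H]rauwolscine to equilibrium. Separation was by GF/B filtration; phentolamine (10 μM) set nonspecific binding.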

Series [2] relates to human prostatic tissue. Briefly: In vitro human prostate model: block of phenylephrine-induced contraction of human prostatic tissue. The class given is cell-based. The text has this: The protocol for these experiments is given below.
Functional Properties of α1 Antagonists in the Human Prostate
The efficacy of α1 adrenergic antagonists for the treatment of benign prostatic hyperplasia (BPH) is related to their ability to elicit relaxation of prostate smooth muscle. An index of this efficacy can be obtained by determining the potency of al antagonists to antagonize the contraction of human prostatic tissue induced by an α1 agonist “in vitro”. Furthermore, by comparing the potency of subtype selective α1 antagonists in binding assays using human α1 receptors with their potency to inhibit agonist-induced smooth muscle contraction, it is possible to determine which of the α1 adrenergic receptor subtypes is involved in the contraction of prostate smooth muscle.
Prostatic adenomas were obtained at the time of surgery from patients with symptomatic BPH. […] The baths were maintained at 37° C. and continuously oxygenated with 5% CO2 and 95% O2. Isometric tension was measured with a Grass Instrument FT03 force transducer interfaced with a computer. Tissue strips were contracted with varying concentrations of phenylephrine after incubating for 20 minutes in the absence and presence of at least three different concentrations of antagonist. Dose-response curves for phenylephrine were constructed, and the antagonist potency (pA2) was estimated by the dose-ratio method. The concentration of some antagonists in the tissue bath was assessed by measuring the displacement of [3H]prazosin by aliquots of the bath medium, using membrane preparations of the cloned human α1C receptor. This control was necessary to account for losses of antagonist due to adsorption to the tissue bath and/or metabolism during the time the antagonists were equilibrated with the prostate tissue.

The subject of series [3] is canine prostate. The experiment in a line: In vivo dog prostate model: inhibition of phenylephrine-induced increase in urethral pressure in anesthetized dogs.
Experimental: Protocol for In Vivo Evaluation of Compounds in Canine Prostate
Adult male mongrel dogs more than one year of age were chosen for the model. After induction of general anesthesia using sodium pentobarbital (25 mg/Kg i.v.), the animals were intubated and allowed to breathe spontaneously. An arterial catheter was inserted via the femoral artery to monitor blood pressure and i.v. line was inserted into the leg for fluid and drug administration. A constant saline infusion was maintained at 40 to 50 mL/h. Next, a seven cm lower abdominal incision was made one cm lateral to the penis.
The bladder, prostate and a short segment of urethra were identified and isolated, without damage to the nerves or blood vessels. A cystotomy incision was made through which the pressure catheter was inserted and positioned in the prostatic urethra. The cystotomy was not closed, but the wound edges were sutured to stop bleeding. The tip of the catheter was positioned just distal to the prostate and secured in place with an O-silk tie around the urethra. A second holding suture at the bladder neck secured the catheter in place.
Fluid, either water or saline, was pumped by a Harvard infusion pump at 0.1 mL/min through a Gould pressure transducer into the catheter. The fluid exists at a port in the catheter which is in the prostatic urethra. Occlusion of the port, by contraction of the prostate, blocks the flow and a pressure wave is created. This pressure is transmitted back through the catheter to the transducer which is attached to a Gould recorder. Squeezing the prostate gland caused an increase in urethral pressure which verified the correct position in the urethra.
The compounds were tested as follows: A dose response curve was first generated for phenylephrine alone, in doses ranging from one μg/Kg to 50 μg/Kg. The absolute rise in urethral pressure was recorded for each dose and the next dose given when the urethral pressure returned to baseline. Phenylephrine dose response curves were generated in all animals tested. Increasing doses of compounds were then given, and the phenylephrine dose response curve repeated in the prepense of each dose of the compound. No animal received more than one compound; four animals were used to test each compound. To test for tachyphylaxis, four separate dogs were challenged with repeated phenylephrine doses for six hrs, the usual length of each experiment. From the dose-effect data, the inhibition constant (Ki) and the median-effect dose (ED50) were calculated. Both the Ki and ED50 values given are calculated by using microcomputer software and an IBM-PC.
Setting [4] is: [3H]rauwolscine, LM(tk-) cell line L-α2C, SEM and n in lines below, read-out: pKi alpha-2 2c (converted).
Setting [5] is: PKi alpha-2 2c, [3H]rauwolscine, human α2C receptor, LM(tk-) cells.
[6] abbreviates: [3H]rauwolscine, human receptor, LM(tk-) cell lysates, mean, read-out: PKi alpha-2 2c (converted).
The mark [7] stands for this setting: [3H]rauwolscine, human α2C receptor, LM(tk-) cells, read-out: PKi alpha-2 2c (converted).

Molecules are shown by their SMILES. Where a name gives a salt, the structure may show the parent alone. Read-outs that look alike come from different tables or passages of the source.

As for `CNC(=O)C1=C(C)NC(C)=C(C(=O)NCCCN2CCC(c3ccccc3)(c3ccccc3)CC2)C1c1ccc([N+](=O)[O-])cc1` (centres unmarked) [Example 38, 1,4-Dihydro-2,6-dimethyl-5-(N-methyl)carboxamido-4-(4-nitrophenyl)-3-{N-[3-(4,4-diphenylpiperidin-1-yl)propyl]}carboxamidopyridine], in series [1], the “pKi alpha-2 2c” value was 6.49. In series [2] (block of phenylephrine-induced contraction of human prostate), this compound gave a pA2 of 8.98 ± 0.06. In addition, the “Urethral Pressure K i” value in series [3] (inhibition of phenylephrine-induced increases in urethral pressure, anesthetized dogs) was 8 ± 1.5 nmol/kg.
With `COC(=O)C1=C(C)NC(C)=C(C(=O)NCCCN2CCC(c3ccccc3)CC2)C1c1ccc([N+](=O)[O-])cc1` (racemic) [(±)-45, (±)-1,4-Dihydro-3-methoxycarbonyl-2,6-dimethyl-4-(4-nitrophenyl)-5-{N-[3-(4-phenylpiperidin-1-yl)propyl]}carboxamidopyridine hydrochloride hemihydrate], the Ki in series [1] (setting [4]) was 81.3 nM; in series [3] (In Vivo Dog Prostate Model, phenylephrine-induced contraction, urethral pressure) it was 12 nmol/kg. The compound also came in with a pKi in series [2] (In Vitro Human Prostate Model, phenylephrine-induced contraction) of 8.07 ± 0.13.
With `CC(=O)C1=C(C)NC(COCCN)=C(C(=O)NCCCN2CCC(c3ccccc3)(c3ccccc3)CC2)C1c1ccc(F)cc1` (centres unmarked) [Example 242, 5-Acetyl-2-((2-aminoethyl)oxy)methyl-4-(4-fluoro)phenyl-1,4-dihydro-6-methyl-3-(N-(3-(4,4-diphenylpiperidin-1-yl)propyl))carboxamidopyridine], the melting point was 75 °C (dec.). The compound further showed a Ki in series [1] (setting [5]) of 257 nM.
For `CCC1=C(C(N)=O)C(c2ccc([N+](=O)[O-])cc2)C(C(=O)NCCCN2CCC(c3ccccc3)(c3ccccc3)CC2)=C(CCCCN)N1` (centres unmarked) [Example 171, 2-(4-Aminobutyl)-5-carboxamido-6-ethyl-1,4-dihydro-4-(4-nitrophenyl)-3-{N-[3-(4,4-diphenylpiperidin-1-yl)propyl]}carboxamidopyridine], the melting point is 85 to 89 °C. In addition, the Ki in series [1] (setting [6]) was 575 nM.
Consider `CCC1=C(C(=O)NCCOC)C(c2ccc([N+](=O)[O-])cc2)C(C(=O)NCCCN2CCC(c3ccccc3)(c3ccccc3)CC2)=C(COC)N1` (centres unmarked) [Example 247, 6-Ethyl-1,4-dihydro-5-N-((2-methoxy)ethyl)carboxamido-2-(methyloxy)methyl-4-(4-nitro)phenyl-3-(N-(3-(4,4-diphenylpiperidin-1-yl)propyl)) carboxamidopyridine], for which the melting point was 70 °C (dec.). In addition, the Ki in series [1] (setting [7]) was 302 nM.
For `CCC1=C(C(=O)NC)C(c2ccc([N+](=O)[O-])cc2)C(C(=O)NCCCN2CCC(c3ccccc3)(c3ccccc3)CC2)=C(CCCCN)N1` (centres unmarked) [Example 172, 2-(4-Aminobutyl)-6-ethyl-1,4-dihydro-5-(N-methyl)carboxamido-4-(4-nitrophenyl)-3-{N-[3-(4,4-diphenylpiperidin-1-yl)propyl]}carboxamidopyridine], the melting point lay within 105 to 109 °C. Also, the Ki in series [1] (setting [6]) is 692 nM.
`CCNC(=O)C1=C(CC)NC(COCCN)=C(C(=O)NCCCN2CCC(C(=O)OC)(c3ccccc3)CC2)C1c1ccc([N+](=O)[O-])cc1` (centres unmarked) [Example 233, 2-((2-Aminoethyl)oxy)methyl-6-ethyl-5-N-ethylcarboxamido-1,4-dihydro-3-(N-(3-(4-methoxycarbonyl-4-phenylpiperidin-1-yl)propyl))carboxamido-4-(4-nitro)phenylpyridine]: the melting point is 112 °C (dec.). Besides, the Ki in series [1] (PKi alpha-2 2c) is 1660 nM.
On to `CC(=O)C1=C(C)NC(COCCN)=C(C(=O)NCCCN2CCC(c3ccccc3)(c3ccccc3)CC2)C1c1ccc2c(c1)OCO2` (centres unmarked) [Example 239, 5-Acetyl-2-((2-aminoethyl)oxy)methyl-1,4-dihydro-6-methyl-4-(3,4-methylenedioxy)phenyl-3-(N-(3-(4,4-dipheylpiperidin-1-yl)propyl))carboxamidopyridine], for which the melting point was 80 °C (dec.). This compound gave a Ki in series [1] (setting [5]) of 263 nM.
On to `CCC1=C(C(N)=O)C(c2ccc([N+](=O)[O-])cc2)C(C(=O)NCCCN2CCC(C(=O)OC)(c3ccccc3)CC2)=C(CCCCN=[N+]=[N-])N1` (centres unmarked) [Example 165, 2-(4-Azidobutyl)-3-{N-[3-(4-methoxycarbonyl-4-phenylpiperidin-1-yl)propyl]}carboxamido-5-carboxamido-6-ethyl-1,4-dihydro-4-(4-nitrophenyl)pyridine], for which the melting point is 74 to 77 °C. For the same compound, in series [1] (setting [6]), the Ki is 1510 nM.
As for `CCC1=C(C(=O)OCCO)C(c2ccc([N+](=O)[O-])cc2)C(C(=O)NCCCN2CCC(c3ccccc3)(c3ccccc3)CC2)=C(COC)N1` (centres unmarked) [Example 246], the melting point was 73 °C (dec.). Besides, the Ki in series [1] (setting [7]) is 2400 nM.
With `COC(=O)C1=C(C)NC(C)=C(C(=O)NCCCN2CCC(c3ccccc3)CC2)C1c1cccc([N+](=O)[O-])c1` (centres unmarked) [Example 30, 1,4-Dihydro-3-methoxycarbonyl-2,6-dimethyl-4-(3-nitrophenyl)-5-(N-(3-(4-phenylpiperidin-1-yl)propyl)carboxamido)pyridine], the melting point was 78 to 80 °C. Moreover, the Ki in series [1] (setting [4]) is 49 nM.
Turning to `CNC(=O)C1=C(C)NC(C)=C(C(=O)NCCCN2CCC(c3ccccc3)(c3ccccc3)CC2)C1c1ccc2c(c1)OCCO2` (centres unmarked) [Example 163], the melting point was 115 to 116 °C. Besides, in series [1] (PKi alpha-2 2c, [3H]rauwolscine, human receptor, LM(tk-) cell lysates, mean), the Ki was 1230 nM.
In the case of `CCNC(=O)C1=C(CC)NC(CC)=C(C(=O)NCCCN2CCC(C(=O)OC)(c3ccccc3)CC2)C1c1ccc([N+](=O)[O-])cc1` (centres unmarked) [Example 180, 2,6-Diethyl-1,4-dihydro-5-(N-ethyl)carboxamido-3-{N-[3-(4-methoxycarbonyl-4-phenylpiperidin-1-yl)propyl]}carboxamido-4-(4-nitrophenyl)pyridine], the melting point was 217 °C (dec.). Moreover, the Ki in series [1] (PKi alpha-2 2c) is 5750 nM.
`CC1=C(C(=O)NCCCN2CCC(c3ccccc3)(c3ccccc3)CC2)C(c2ccc([N+](=O)[O-])cc2)C(C(=O)N(C)C)=C(C)N1` (centres unmarked) [Example 39, 1,4-Dihydro-2,6-dimethyl-3-(N,N-dimethyl) carboxamido-4-(4-nitrophenyl)-5-{N-[3-(4,4-diphenylpiperidin-1-yl)propyl]}carboxamidopyridine] yielded a melting point of 135 °C. Also, in series [1] ([3H]rauwolscine, LM(tk-) cell line L-α2C, SEM and n in lines below), the “pKi alpha-2 2c” value stood at 6.09.
`CCOC(=O)C1(c2ccccc2)CCN(CCCNC(=O)C2=C(COCCN)NC(CC)=C(C(=O)OC)C2c2ccc([N+](=O)[O-])cc2)CC1` (centres unmarked) [Example 197, 2-[(2-Aminoethoxy)methyl]-3-{N-[3-(4-ethoxycarbonyl-4-phenylpiperidin-1-yl)propyl]}carboxamido-1,4-dihydro-6-ethyl-5-methoxycarbonyl-4-(4-nitrophenyl) pyridine] yielded a melting point of 45 to 47 °C. The compound also had a Ki in series [1] (PKi alpha-2 2c) of 513 nM.
